Experimental data taken from publication PMC10216605, “Developing In Vitro Models to Define the Role of Direct Mitochondrial Toxicity in Frequently Reported Drug-Induced Rhabdomyolysis” (Biomedicines, 2023).
Counter-ions that a name gives are not always drawn. Like-named read-outs stand apart in the source and are kept apart here.

Columns and labels:
[1] = test system: L6 cells; assay: Acute metabolic switch assay (cellular ATP content, glucose vs galactose media) in L6 differentiated myotubes; details: for IC50-ATPglu/IC50-ATPgal: ratio ≥ 2 = mitotoxic
Protocol: They were then seeded into collagen-coated wells (50 µg/mL in 0.02 M of acetic acid) at a density of 16,000 cells/100 μL/well (96 well plates) and 10,000 cells/100 μL/well (XF 96-well cell culture microplates). The cells were next incubated for 24 h in complete growth medium to promote adherence, after which the growth medium was removed and the cells washed twice with 1× HBSS. The L6 myoblasts were then cultured in differentiation medium consisting of high-glucose DMEM (25 mM) supplemented with L-glutamine (4 mM), sodium pyruvate (1 mM), HEPES (5 mM), and horse serum (2% v/v). Fresh differentiation medium was provided every 48 h for 7 days.
On the day of the assay, the media on the differentiated myotubes were replaced with either serum-free high-glucose (DMEM, 25 mM of glucose, 4 mM of L-glutamine, 1 mM of sodium pyruvate, and 5 mM of HEPES) or serum-free galactose (DMEM, 10 mM of galactose, 6 mM of L-glutamine, 1 mM of sodium pyruvate, and 5 mM of HEPES) media (100 µL) for 2 h (37 °C, 5% CO2). The glucose and galactose media were removed and replaced with drug-dosing solutions in either glucose or galactose media as appropriate, before incubation (2 h, 37 °C, 5% CO2). […] Vehicle control was included in each experiment.
The cellular ATP content was measured using a bioluminescence assay kit, alongside the concomitant measurement of protein using a bicinchoninic acid (BCA) assay kit to normalise ATP data to the total protein. Briefly, the cells were lysed using ATP lysis buffer (50 µL/well) and the plate was shaken (5 min). According to the manufacturer’s instructions, 40 µL of ATP reagent was added to each well containing 5 µL of cell lysate in a white 96-well plate. The […] luminescence signal was measured immediately using a plate reader (Varioskan, Thermo Scientific, Schaumburg, IL USA).

[2] = human
Protocol: (§1) Due to the quarterly updating of the database by the FDA, the searches were performed using the term “rhabdomyolysis” on one occasion to ensure the data were extracted at that specified period. All individual files were downloaded and saved from this one timepoint to specify the analysis period used in this study. Further refinement was performed using Microsoft Excel to extract only cases where the suspect drug was reported as a monotherapy, using the generic name of the suspect drugs. To ensure data accuracy, any case reported by a consumer or company underwent further checks to ensure it had not been previously reported by a healthcare provider, by confirming that no duplication of case ID was present.

[3] = FAERS analysis of reported rhabdomyolysis cases per suspect drug; details: for Number of Death Cases (n = 576): monotherapy rhabdomyolysis cases with fatal outcome; for (%) of total rhabdomyolysis cases / Number of Rhabdomyolysis Cases / Number of Rhabdomyolysis Cases (n = 6583): FAERS 2004 to 31 March 2020; for (%) of total rhabdomyolysis cases: of 27,140 cases; for Number of Rhabdomyolysis Cases: total 27,140 rhabdomyolysis cases, some cases with more than one suspected drug; for ROR (reported odds ratio): rhabdomyolysis with suspected drug vs all other drugs in FAERS; for (%) of monotherapy rhabdomyolysis cases: of 6583 cases; for Number of Rhabdomyolysis Cases (n = 6583): suspected drug reported as a single drug used (monotherapy)
Protocol: as §1

[4] = test system: L6 cells; details: 6 h exposure
Protocol: The mitochondrial stress test allowed confirmation of mitotoxicity and further identification of the specific mechanisms through quantification of OXPHOS parameters: basal respiration (BR), ATP-linked respiration (ALR), and spare respiratory capacity (SRC). On the day of the assay, for the analysis of the acute injection of the drug on differentiated myotubes, the differentiation media was replaced with 175 µL of unbuffered Seahorse Assay media supplemented with 25 mM of glucose, 4 mM of L-glutamine, 1 mM of sodium pyruvate, and 5 mM of HEPES pre-warmed to 37 °C, then incubated in a CO2 free incubator at 37 °C for 1 h. Alternately, in the pre-treatment strategy, differentiated myotubes were pre-treated with the drug for 5 h in differentiation medium, then transferred to a CO2-free incubator at 37 °C for 1 h. Next, the differentiation media were replaced with 175 µL of unbuffered Seahorse Assay media supplemented with the constituents stated above. Briefly, using the XF^e96 instrument (Seahorse extracellular flux analyser, Agilent Technologies, Santa Clara, CA, USA), the oxygen partial pressure in each well was allowed to reach equilibrium for 10 min. The oxygen consumption rate (OCR) was measured three times at baseline; then, there was a 3 min mix for each measurement followed by a 3 min wait. […] In the acute injection method, the drug injection was only performed at the end of the basal measurement cycles, followed by the mitochondrial inhibitors described above. The duration of the assay was 120 min (acute injection) and 90 min (pre-treatment strategy). From each mitochondrial stress test was determined the OCR parameters of non-mitochondrial respiration (NMR = lowest measurement after rotenone/antimycin A); basal respiration (BR = last measurement before oligomycin − NMR); proton-leak (PL = BR − lowest respiration after oligomycin); ATP-linked respiration (ALR = BR − PL); maximum respiratory capacity (MRC = highest measurement after FCCP − NMR); and spare respiratory capacity (SRC = MRC − BR) [42, 43].

[5] = Rattus norvegicus, L6, 2 h, read-out: ATP IC50 Galactose
[6] = Rattus norvegicus, L6, 2 h, read-out: ATP IC50 Glucose

Structure (SMILES)	Number of Death Cases (n = 576) [3]	(%) of total rhabdomyolysis cases [3] [%]	Number of Rhabdomyolysis Cases [3]	ROR (reported odds ratio) [3]	(%) of monotherapy rhabdomyolysis cases [3] [%]	Number of Rhabdomyolysis Cases (n = 6583) [3]	also measured
CCCCCCCCCC(=O)N[C@@H](Cc1c[nH]c2ccccc12)C(=O)N[C@H](CC(N)=O)C(=O)N[C@@H](CC(=O)O)C(=O)N[C@@H]1C(=O)NCC(=O)N[C@@H](CCCN)C(=O)N[C@@H](CC(=O)O)C(=O)N[C@H](C)C(=O)N[C@@H](CC(=O)O)C(=O)NCC(=O)N[C@H](CO)C(=O)N[C@@H]([C@H](C)CC(=O)O)C(=O)N[C@@H](CC(=O)c2ccccc2N)C(=O)O[C@@H]1C [Daptomycin]	18	–	–	–	–	–	IC50-ATPglu/IC50-ATPgal ([1]; L6 cells, 2 h exposure): ~1 (n/d); IC50-ATPglu/IC50-ATPgal ([1]; L6 cells, 2 h exposure, listed as daptomycin): 1; IC50 [1, 5]: > 100 µM; IC50 [1, 6]: > 100 µM; (%) of monotherapy rhabdomyolysis cases [2]: 3.5%; (%) of total rhabdomyolysis cases [2]: 1.4%; Number of Rhabdomyolysis Cases [2]: 380; Number of Rhabdomyolysis Cases (n = 6583) [2]: 227; ROR (reported odds ratio) [2]: 3.2
CC(C)c1c(C(=O)Nc2ccccc2)c(-c2ccccc2)c(-c2ccc(F)cc2)n1CC[C@@H](O)C[C@@H](O)CC(=O)O [Atorvastatin acid]	–	–	–	–	–	–	IC50-ATPglu/IC50-ATPgal ([1]; L6 cells, 2 h exposure): ~1 (n/d); IC50-ATPglu/IC50-ATPgal ([1]; L6 cells, 2 h exposure, listed as atorvastatin acid): 1; IC50 ([1]; read-out: ATP IC50 Galactose, L6 cells, 2 h exposure, galactose serum-free media, mean ± S.D. (n = 3)): > 300 µM; IC50 ([1]; read-out: ATP IC50 Glucose, L6 cells, 2 h exposure, glucose serum-free media, mean ± S.D. (n = 3)): > 300 µM
CN(C)C(=N)N=C(N)N [Metformin]	–	1.8	478	0.4	–	–	–
O=C1[C@H](CC[C@H](O)c2ccc(F)cc2)[C@@H](c2ccc(O)cc2)N1c1ccc(F)cc1 [Ezetimibe]	6	1.9	501	2.6	2.5	166	IC50-ATPglu/IC50-ATPgal ([1]; L6 cells, 2 h exposure): ~1 (n/d); IC50-ATPglu/IC50-ATPgal ([1]; L6 cells, 2 h exposure, listed as ezetimibe): 1; IC50 [1, 5]: > 300 µM; IC50 [1, 6]: > 300 µM
NS(=O)(=O)c1cc(C(=O)O)c(NCc2ccco2)cc1Cl [Furosemide]	–	1.8	480	0.8	–	–	–
CC(=O)Oc1ccccc1C(=O)O [Aspirin]	–	1.2	313	0.2	–	–	–
CC(C)c1nc(N(C)S(C)(=O)=O)nc(-c2ccc(F)cc2)c1/C=C/[C@@H](O)C[C@@H](O)CC(=O)O [Rosuvastatin]	47	7.4	2008	2.9	17.0	1122	IC50-ATPglu/IC50-ATPgal ([1]; L6 cells, 2 h exposure): ~1 (n/d); IC50-ATPglu/IC50-ATPgal ([1]; L6 cells, 2 h exposure, listed as rosuvastatin): 1; IC50 [1, 5]: > 300 µM; IC50 [1, 6]: > 300 µM
CC(C)c1c(C(=O)Nc2ccccc2)c(-c2ccccc2)c(-c2ccc(F)cc2)n1CC[C@@H](O)C[C@@H](O)CC(=O)O [Atorvastatin]	169	12.2	3307	4.3	21.1	1386	–
CN[C@H]1CC[C@@H](c2ccc(Cl)c(Cl)c2)c2ccccc21 [Sertraline]	–	1.3	347	0.4	–	–	–
Cc1cc2c(s1)Nc1ccccc1N=C2N1CCN(C)CC1 [Olanzapine]	23	–	–	–	–	–	–
COc1ccc(C(CN(C)C)C2(O)CCCCC2)cc1 (centres unmarked) [Venlafaxine]	–	1.6	425	0.5	–	–	–
Nc1nnc(-c2cccc(Cl)c2Cl)c(N)n1 [Lamotrigine]	–	1.2	314	0.3	–	–	–
CC[C@@H](C(N)=O)N1CCCC1=O [Levetiracetam]	8	2.2	588	0.9	5.9	386	IC50-ATPglu/IC50-ATPgal ([1]; L6 cells, 2 h exposure): ~1 (n/d); IC50-ATPglu/IC50-ATPgal ([1]; L6 cells, 2 h exposure, listed as levetiracetam): 1; IC50 [1, 5]: > 300 µM; IC50 [1, 6]: > 300 µM
CC(=O)Nc1ccc(O)cc1 [Acetaminophen]	–	1.7	449	0.3	–	–	–
O=C(CCCN1CCC(O)(c2ccc(Cl)cc2)CC1)c1ccc(F)cc1 [Haloperidol]	–	1.1	310	1.3	–	–	–
CC(C)c1cccc(C(C)C)c1O [Propofol]	70	1.6	434	2.2	2.7	179	Mitotoxicity classification in acute metabolic switch assay [1]: multi-mechanistic; IC50 [1, 5]: 242 ± 13.4 µM; IC50 [1, 6]: > 300 µM; Classification from pattern of changes in BR, ALR and SRC [4]: direct inhibitors of the electron transport chain
CC(C)C[C@H](CN)CC(=O)O [Pregabalin]	13	1.6	442	–	2.0	132	IC50 [1, 6]: > 300 µM; Classification from pattern of changes in BR, ALR and SRC [4]: direct inhibitors of the electron transport chain
OCCOCCN1CCN(C2=Nc3ccccc3Sc3ccccc32)CC1 [Quetiapine]	26	2.8	761	–	3.0	199	–
CC[C@H]1OC(=O)[C@H](C)[C@@H](O[C@H]2C[C@@](C)(OC)[C@@H](O)[C@H](C)O2)[C@H](C)[C@@H](O[C@@H]2O[C@H](C)C[C@H](N(C)C)[C@H]2O)[C@](C)(OC)C[C@@H](C)C(=O)[C@H](C)[C@@H](O)[C@]1(C)O [Clarithromycin]	–	1.6	427	1.2	–	–	–
COc1ccc2[nH]c([S+]([O-])Cc3ncc(C)c(OC)c3C)nc2c1 (centres unmarked) [Omeprazole]	–	1.3	363	0.5	–	–	–
Cc1nnc2n1-c1ccc(Cl)cc1C(c1ccccc1)=NC2 [Alprazolam]	–	1.1	290	0.4	–	–	–
O=C1CCc2ccc(OCCCCN3CCN(c4cccc(Cl)c4Cl)CC3)cc2N1 [Aripiprazole]	–	1.5	419	0.4	–	–	–
CCC(C)(C)C(=O)O[C@H]1C[C@@H](C)C=C2C=C[C@H](C)[C@H](CC[C@@H](O)C[C@@H](O)CC(=O)O)[C@H]21 [Simvastatin acid, Simvastatin hydroxy acid ammonium salt]	–	–	–	–	–	–	IC50-ATPglu/IC50-ATPgal ([1]; L6 cells, 2 h exposure): ~1 (n/d); IC50-ATPglu/IC50-ATPgal ([1]; L6 cells, 2 h exposure, listed as simvastatin acid): 1; IC50 [1, 5]: > 300 µM; IC50 [1, 6]: > 300 µM
CN1CCN(C2=Nc3cc(Cl)ccc3Nc3ccccc32)CC1 [Clozapine]	12	1.1	286	–	1.8	116	–
Cc1ccc(C)c(OCCCC(C)(C)C(=O)O)c1 [Gemfibrozil]	–	1.6	442	15.0	–	–	ROR (reported odds ratio) ([3]; listed as gemfibrozil): 15
